ChEMBL document CHEMBL1142017, “Structure-activity relationships and sub-type selectivity in an oxabicyclic estrogen receptor alpha/beta agonist scaffold” (Bioorg Med Chem Lett, 2005)

What was measured:
[1] = biological target: T1, Estrogen receptor (Rattus norvegicus) (UniProt P06211+Q62986); test: Effect on uterine wet weight in ovariectomized female rats after 30 mg/kg oral gavage dose; assay type: functional, organism-based; set-up: dose 30 mg/kg
Estrogen receptor beta [2] = biological target: T2, Estrogen receptor beta (Homo sapiens, UniProt Q92731)
Description: (§1) In vitro agonist activity for estrogen receptor beta expressed in COS-1 cells

Estrogen receptor = biological target: T3, Estrogen receptor (Homo sapiens, UniProt P03372)
T3 sequence (P03372 whole entry): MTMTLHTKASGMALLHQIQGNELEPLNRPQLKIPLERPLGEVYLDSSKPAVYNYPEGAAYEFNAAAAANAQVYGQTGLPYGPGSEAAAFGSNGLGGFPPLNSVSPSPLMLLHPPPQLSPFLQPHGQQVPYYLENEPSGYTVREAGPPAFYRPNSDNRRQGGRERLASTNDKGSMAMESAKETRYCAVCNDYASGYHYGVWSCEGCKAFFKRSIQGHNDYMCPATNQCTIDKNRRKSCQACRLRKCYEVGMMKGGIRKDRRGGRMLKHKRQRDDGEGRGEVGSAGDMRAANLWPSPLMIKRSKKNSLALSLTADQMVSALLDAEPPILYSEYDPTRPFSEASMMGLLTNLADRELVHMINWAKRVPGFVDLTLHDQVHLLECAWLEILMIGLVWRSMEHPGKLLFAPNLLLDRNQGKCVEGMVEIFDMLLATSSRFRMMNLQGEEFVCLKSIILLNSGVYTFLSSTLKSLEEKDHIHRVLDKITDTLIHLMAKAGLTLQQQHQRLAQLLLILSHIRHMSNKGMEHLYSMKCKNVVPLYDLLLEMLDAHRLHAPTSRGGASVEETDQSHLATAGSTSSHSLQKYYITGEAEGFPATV
Description: In vitro agonist activity for estrogen receptor alpha expressed in COS-1 cells

Estrogen receptor beta [3] = biological target: T2, Estrogen receptor beta; conditions: cos-1
Description: as §1

[4] = biological target: T1, Estrogen receptor (Rattus norvegicus); test: Effect on uterine wet weight in ovariectomized female rats; assay type: functional

T2 sequence (Q92731 whole entry): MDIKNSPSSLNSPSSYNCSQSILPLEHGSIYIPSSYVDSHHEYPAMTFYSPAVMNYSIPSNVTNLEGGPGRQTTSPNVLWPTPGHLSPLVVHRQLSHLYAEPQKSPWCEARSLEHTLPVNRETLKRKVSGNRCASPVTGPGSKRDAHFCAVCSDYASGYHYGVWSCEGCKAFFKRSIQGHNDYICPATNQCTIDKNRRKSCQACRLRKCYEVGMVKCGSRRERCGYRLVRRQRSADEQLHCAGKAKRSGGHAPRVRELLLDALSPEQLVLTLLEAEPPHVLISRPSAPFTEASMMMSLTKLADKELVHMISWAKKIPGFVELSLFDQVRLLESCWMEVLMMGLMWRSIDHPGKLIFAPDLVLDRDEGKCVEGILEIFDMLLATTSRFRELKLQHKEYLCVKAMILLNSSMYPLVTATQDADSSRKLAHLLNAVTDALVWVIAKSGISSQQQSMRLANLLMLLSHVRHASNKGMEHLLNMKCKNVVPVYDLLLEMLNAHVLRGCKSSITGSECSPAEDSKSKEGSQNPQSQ

| SMILES | ED50 [1] [mg/kg/day] | EC50 (Estrogen receptor beta [2]) [nM] | EC50 (Estrogen receptor) [nM] | EC50 (Estrogen receptor beta [3]) [nM] | ED50 [4] [mg/kg/day] |
| --- | --- | --- | --- | --- | --- |
| C[C@]12CC[C@@H]3c4ccc(OS(=O)(=O)O)cc4CC[C@H]3[C@@H]1CCC2=O | 0.16 | – | – | – | – |
| CC1=CC[C@@]2(CO)CO[C@@H](c3ccc(O)cc3O)[C@@H]1C2 (racemic) | – | 275 | 173 | – | – |
| CC1=CC[C@@]2(CO)CO[C@@H](c3ccc(O)cc3Cl)[C@]1(C)C2 (racemic) | – | 67 | 43 | – | – |
| CC1=CC[C@@]2(CO)CO[C@@H](c3ccc(O)c(F)c3)[C@]1(C)C2 (racemic) | – | 6 | 68 | – | – |
| CC1=CC[C@@]2(CO)CO[C@@H](c3ccc(O)c(C)c3)[C@@H]1C2 (racemic) | – | 305 | 137 | – | – |
| CC1=CC[C@@]2(CO)CO[C@@H](c3ccc(O)c(Br)c3)[C@@H]1C2 (racemic) | – | 485 | 336 | – | – |
| CC1=CC[C@@]2(CO)CO[C@@H](c3ccc(O)cc3F)[C@@H]1C2 (racemic) | – | 10 | 39 | – | – |
| CC1=CC[C@@]2(CO)CO[C@@H](c3ccc(O)c(O)c3)[C@@H]1C2 (racemic) | – | 3160 | 2410 | – | – |
| CC1=CC(C)(C)[C@@]2(O)CO[C@@H](c3ccc(O)cc3)[C@@H]1C2 (racemic) | – | 183 | 141 | – | – |
| CC1=CC[C@]2(O)C[C@H]1[C@H](c1ccc(O)c(F)c1)OC2(C)C (racemic) | – | 7.2 | 0.6 | – | – |
| CC1=CC[C@@]2(CO)CO[C@@H](c3ccc(O)c(F)c3)[C@@H]1C2 (racemic) | – | 25 | 4.6 | – | – |
| CC1=CC[C@@]2(CO)CO[C@@H](c3cc(C)c(O)c(C)c3)[C@@H]1C2 (racemic) | – | 2830 | 743 | – | – |
| COc1cc([C@@H]2OC[C@]3(CO)CC=C(C)[C@H]2C3)ccc1O (racemic) | – | 3050 | 1980 | – | – |
| CC1=CC[C@@]2(CO)CO[C@@H](c3ccc(O)cc3)[C@]1(C)C2 (racemic) | – | 39 | 203 | – | – |
| CC1=CC[C@@]2(O)CO[C@@H](c3ccc(O)cc3)[C@@H]1C2(C)C (racemic) | – | 24 | 59 | – | – |
| CC1=CC[C@@]2(CO)CO[C@@H](c3ccc(O)cc3F)[C@]1(C)C2 (racemic) | – | 12 | 50 | – | – |
| CC1=CC[C@@]2(CO)CO[C@@H](c3ccc(O)c(Cl)c3)[C@@H]1C2 (racemic) | – | 197 | 36 | – | – |
| CC1=CC[C@@H]2C[C@H]1[C@H](c1ccc(O)c(C)c1)OC2(C)C (stereo in doubt) | – | – | 218 | 318 | – |
| CC1=CC[C@@H]2C[C@H]1[C@H](c1ccc(O)cc1)OC2(C)C (stereo in doubt) | – | 195 | 211 | – | – |
| CC1=CC[C@@]2(CO)CO[C@@H](c3ccc(O)c(F)c3)[C@@H]1C2 (stereo in doubt; (+)-27) | – | 40 | 2.6 | – | – |
| CC1=CC[C@@H]2C[C@H]1[C@H](c1ccc(O)cc1)OC2(C)C (stereo in doubt; (+)-31) | – | 418 | 203 | – | – |
| CC1=CC[C@@H]2C[C@H]1[C@H](c1ccc(O)c(C)c1)OC2(C)C (stereo in doubt; (+)-32) | – | 318 | 143 | – | – |
| CC1=CC[C@@]2(CO)CO[C@@H](c3ccc(O)c(F)c3)[C@@H]1C2 (stereo in doubt; (-)-28) | – | 57 | 254 | – | – |

Results, then the molecule that gave them:

| ED50 [1] [mg/kg/day] | EC50 (Estrogen receptor beta [2]) [nM] | EC50 (Estrogen receptor) [nM] | EC50 (Estrogen receptor beta [3]) [nM] | ED50 [4] [mg/kg/day] | SMILES |
| --- | --- | --- | --- | --- | --- |
| – | 79 | 92 | – | – | CC1=CC[C@@]2(CO)CO[C@@H](c3ccc(O)cc3C)[C@@H]1C2 (racemic) |
| – | 5.3 | 11 | – | – | CC1=CC[C@@]2(CO)CO[C@@H](c3ccc(O)cc3Cl)[C@@H]1C2 (racemic) |
| – | 25 | 21 | – | – | CC1=CC(C)(C)[C@@]2(O)CO[C@@H](c3ccc(O)cc3Cl)[C@@H]1C2 (racemic) |
| – | 6 | 1 | – | – | CC1=CC[C@]2(O)C[C@H]1[C@H](c1ccc(O)cc1Cl)OC2(C)C (racemic) |
| – | 9.2 | 1.6 | – | – | CC1=CC[C@]2(O)C[C@H]1[C@H](c1ccc(O)cc1)OC2(C)C (racemic) |
| – | 1.4 | 1.1 | – | – | CC1=CC[C@]2(O)C[C@H]1[C@H](c1ccc(O)cc1F)OC2(C)C (racemic) |
| – | 46 | 138 | – | – | CC1=CC[C@@]2(CO)CO[C@@H](c3ccc(O)cc3Cl)[C@@H]1C2 (stereo in doubt; (+)-25) |
| – | 180 | 21 | – | – | CC1=CC[C@@]2(CO)CO[C@@H](c3ccc(O)cc3F)[C@@H]1C2 (stereo in doubt; (+)-29) |
| – | 6.1 | 18 | – | – | CC1=CC[C@@]2(CO)CO[C@@H](c3ccc(O)cc3Cl)[C@@H]1C2 (stereo in doubt; (-)-26) [listing 1 of 2 here] |
| – | – | – | – | 3.44 | CC1=CC[C@@]2(CO)CO[C@@H](c3ccc(O)cc3Cl)[C@@H]1C2 (stereo in doubt; (-)-26) [listing 2 of 2 here] |
| – | 3.1 | 19 | – | – | CC1=CC[C@@]2(CO)CO[C@@H](c3ccc(O)cc3F)[C@@H]1C2 (stereo in doubt; (-)-30) |
